Results as given in ChEMBL document CHEMBL1201862, “PubChem BioAssay data set” (2004).
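Five concentrations, 48 hours, 96-well plates. GI50: concentration for 50% inhibition of growth.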 The source made the active and inactive calls. Rule as the data show it: active = GI50 up to about 1.1 µM and inactive = higher.

Columns and labels:
Experiment in all cases: NCI tumour cell line growth inhibition, 48 h
786-0 = test system: 786-0
A498 = test system: A498
A549 = test system: A549
ACHN = test system: ACHN
BT-549 = test system: BT-549
CAKI-1 = test system: CAKI-1
CCRF-CEM = test system: CCRF-CEM
COLO 205 = test system: COLO 205
DU-145 = test system: DU-145
EKVX = test system: EKVX
HCC 2998 = test system: HCC 2998
HCT-116 = test system: HCT-116
HCT-15 = test system: HCT-15
HL-60 = test system: HL-60
HOP-62 = test system: HOP-62
HOP-92 = test system: HOP-92
HT-29 = test system: HT-29
Hs-578T = test system: Hs-578T
K562 = test system: K562
KM12 = test system: KM12
LOX IMVI = test system: LOX IMVI
M14 = test system: M14
MCF7 = test system: MCF7
MDA-MB-231 = test system: MDA-MB-231
MDA-MB-435 = test system: MDA-MB-435
MDA-N = test system: MDA-N
MOLT-4 = test system: MOLT-4
Malme-3M = test system: Malme-3M
NCI-H226 = test system: NCI-H226
NCI-H23 = test system: NCI-H23
NCI-H460 = test system: NCI-H460
NCI-H522 = test system: NCI-H522
NCI/ADR-RES = test system: NCI/ADR-RES
OVCAR-3 = test system: OVCAR-3
OVCAR-4 = test system: OVCAR-4
OVCAR-5 = test system: OVCAR-5
OVCAR-8 = test system: OVCAR-8
PC-3 = test system: PC-3
RPMI-8226 = test system: RPMI-8226
RXF 393 = test system: RXF 393
SF-268 = test system: SF-268
SF-295 = test system: SF-295
SF-539 = test system: SF-539
SK-MEL-28 = test system: SK-MEL-28
SK-MEL-2 = test system: SK-MEL-2
SK-MEL-5 = test system: SK-MEL-5
SK-OV-3 = test system: SK-OV-3
SN12C = test system: SN12C
SNB-19 = test system: SNB-19
SNB-75 = test system: SNB-75
SR = test system: SR
SW-620 = test system: SW-620
T47D = test system: T47D
TK-10 = test system: TK-10
U-251 = test system: U-251
UACC-257 = test system: UACC-257
UACC-62 = test system: UACC-62
UO-31 = test system: UO-31
IGROV-1 = test system: IGROV-1

## O=C1/C(=C\c2cccc(Oc3ccccc3)c2)SC(c2ccccc2)N1c1ccc(Cl)cc1 (stereo not given)
786-0
  GI50: 52.4 µM (inactive)
A498
  GI50: > 95.9 µM (inactive)
A549
  GI50: > 40.6 µM (inactive)
ACHN
  GI50: 20.2 µM (inactive)
BT-549
  GI50: 28.2 µM (inactive)
CAKI-1
  GI50: > 60.3 µM (inactive)
CCRF-CEM
  GI50: 5.89 µM (inactive)
COLO 205
  GI50: 11.2 µM (inactive)
DU-145
  GI50: 65.8 µM (inactive)
EKVX
  GI50: 80.7 µM (inactive)
HCC 2998
  GI50: 87.5 µM (inactive)
HCT-116
  GI50: 10.3 µM (inactive)
HCT-15
  GI50: 7.55 µM
HL-60
  GI50: 10.1 µM (inactive)
HOP-62
  GI50: > 57.1 µM (inactive)
HOP-92
  GI50: 61.1 µM (inactive)
HT-29
  GI50: 30.8 µM (inactive)
Hs-578T
  GI50: > 67.9 µM (inactive)
K562
  GI50: 2.64 µM (inactive)
KM12
  GI50: 12.6 µM (inactive)
LOX IMVI
  GI50: 15.8 µM (inactive)
M14
  GI50: 3.17 µM (inactive)
MCF7
  GI50: 16.3 µM (inactive)
MDA-MB-231
  GI50: > 64.6 µM (inactive)
MDA-MB-435
  GI50: 2.24 µM (inactive)
MDA-N
  GI50: 4.79 µM (inactive)
MOLT-4
  GI50: 20.4 µM (inactive)
Malme-3M
  GI50: 45.6 µM (inactive)
NCI-H226
  GI50: > 100 µM (inactive)
NCI-H23
  GI50: 15.8 µM (inactive)
NCI-H460
  GI50: 24.5 µM (inactive)
NCI-H522
  GI50: 10.2 µM (inactive)
NCI/ADR-RES
  GI50: 21.4 µM (inactive)
OVCAR-3
  GI50: 41.4 µM (inactive)
OVCAR-4
  GI50: 17.4 µM (inactive)
OVCAR-5
  GI50: > 39.7 µM (inactive)
OVCAR-8
  GI50: 32.9 µM (inactive)
PC-3
  GI50: 63.2 µM (inactive)
RPMI-8226
  GI50: 5.78 µM (inactive)
RXF 393
  GI50: 19.5 µM (inactive)
SF-268
  GI50: 18.2 µM (inactive)
SF-295
  GI50: 7.11 µM (inactive)
SF-539
  GI50: 21.3 µM (inactive)
SK-MEL-28
  GI50: 64.9 µM (inactive)
SK-MEL-2
  GI50: > 47.5 µM (inactive)
SK-MEL-5
  GI50: 4.79 µM (inactive)
SK-OV-3
  GI50: 14.1 µM (inactive)
SN12C
  GI50: 26.7 µM (inactive)
SNB-19
  GI50: 59.4 µM (inactive)
SNB-75
  GI50: 90.4 µM (inactive)
SR
  GI50: 3.91 µM (inactive)
SW-620
  GI50: 27.7 µM (inactive)
T47D
  GI50: 5.37 µM (inactive)
TK-10
  GI50: > 64.9 µM (inactive)
U-251
  GI50: 50.5 µM (inactive)
UACC-257
  GI50: 41.9 µM (inactive)
UACC-62
  GI50: 9.04 µM (inactive)
UO-31
  GI50: 16 µM (inactive)

## CCOc1ccccc1/N=N/C1C(=O)N(C(=O)CC(=O)Nc2ccccc2Cl)N=C1C (stereo not given)
786-0
  GI50: > 100 µM (inactive)
A498
  GI50: 50.1 µM (inactive)
A549
  GI50: > 100 µM (inactive)
ACHN
  GI50: > 100 µM (inactive)
BT-549
  GI50: 78.7 µM (inactive)
CAKI-1
  GI50: > 100 µM (inactive)
CCRF-CEM
  GI50: 68.7 µM (inactive)
COLO 205
  GI50: > 100 µM (inactive)
DU-145
  GI50: > 100 µM (inactive)
EKVX
  GI50: 3.86 µM (inactive)
HCC 2998
  GI50: > 100 µM (inactive)
HCT-116
  GI50: 87.3 µM (inactive)
HCT-15
  GI50: 26.9 µM
HL-60
  GI50: 32.8 µM (inactive)
HOP-62
  GI50: 27.9 µM (inactive)
HOP-92
  GI50: 20.3 µM (inactive)
HT-29
  GI50: > 100 µM (inactive)
Hs-578T
  GI50: 22.4 µM (inactive)
IGROV-1
  GI50: 64.6 µM (inactive)
KM12
  GI50: > 100 µM (inactive)
LOX IMVI
  GI50: 43.7 µM (inactive)
M14
  GI50: > 100 µM (inactive)
MCF7
  GI50: > 100 µM (inactive)
MDA-MB-231
  GI50: 97.9 µM (inactive)
MDA-MB-435
  GI50: > 100 µM (inactive)
MDA-N
  GI50: > 100 µM (inactive)
MOLT-4
  GI50: > 100 µM (inactive)
Malme-3M
  GI50: > 100 µM (inactive)
NCI-H226
  GI50: > 100 µM (inactive)
NCI-H23
  GI50: > 100 µM (inactive)
NCI-H460
  GI50: 40.2 µM (inactive)
NCI-H522
  GI50: > 100 µM (inactive)
NCI/ADR-RES
  GI50: 89.3 µM (inactive)
OVCAR-3
  GI50: 55.3 µM (inactive)
OVCAR-4
  GI50: 71 µM (inactive)
OVCAR-5
  GI50: > 100 µM (inactive)
OVCAR-8
  GI50: 88.3 µM (inactive)
PC-3
  GI50: 94.4 µM (inactive)
RPMI-8226
  GI50: 27.2 µM (inactive)
RXF 393
  GI50: > 100 µM (inactive)
SF-268
  GI50: 33.7 µM (inactive)
SF-295
  GI50: 37.6 µM (inactive)
SF-539
  GI50: > 100 µM (inactive)
SK-MEL-28
  GI50: > 100 µM (inactive)
SK-MEL-2
  GI50: > 100 µM (inactive)
SK-MEL-5
  GI50: > 100 µM (inactive)
SK-OV-3
  GI50: 26.9 µM (inactive)
SN12C
  GI50: > 100 µM (inactive)
SNB-75
  GI50: 42.2 µM (inactive)
SR
  GI50: 78.7 µM (inactive)
SW-620
  GI50: > 100 µM (inactive)
T47D
  GI50: > 100 µM (inactive)
TK-10
  GI50: 81.8 µM (inactive)
U-251
  GI50: 42.7 µM (inactive)
UACC-257
  GI50: > 10 µM (inactive)
UACC-62
  GI50: 56 µM (inactive)
UO-31
  GI50: 47.4 µM (inactive)
